Drawing on patent publication US10463651B2, “3-(1H-pyrrolo[3,2-C]pyridin-2-YL)-1H-indazoles and therapeutic uses thereof” (Samumed, LLC, priority 2015, dated 2019), this text covers Emax, EC50 and inhibition for five compounds.

Assay type in all cases: cell-based
Experiment [1] relates to primary human mesenchymal stem cells (hMSCs). Briefly: Induction of chondrogenesis in hMSCs (Rhodamine B / Nile Red nodule imaging). Conditions: for Emax: maximum activity relative to TGF-β3 (10 ng/mL) positive control, read-out: Max. Activity as % TGF-β3 activity. An outline of the steps:
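Primary hMSCs at passage 3-6 were treated with compound; nodule area per well was normalized to the mean of 3 DMSO wells, averaged over 2-3 replicates, and the concentration giving 50% chondrogenesis relative to TGF-β3 control, plus maximum activity and its dose, was derived.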

The subject of another experiment is SW480 colon cancer cells. Briefly: Cell viability assay (CellTiter-Blue). Conditions: Homo sapiens; for EC50: 96 h, SW480 cell viability, four days, CellTiter-Blue. The method, boiled down: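 Fluorescence from resazurin reduced to resorufin by metabolically active cells was the read-out, taken after ~3 h with CellTiter-Blue.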
Experiment [2] deals with Wnt activity (Sp5-Luc reporter, SW480 colon carcinoma cells). Briefly: Screening assay for Wnt activity (Sp5-Luc reporter gene assay in SW480 cells). Conditions: Homo sapiens; for EC50: Sp5-Luc reporter, SW480 cells, incubated overnight. An outline of the steps: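 SW480 colon carcinoma cells stably carrying Sp5 promoter (eight TCF/LEF sites)-driven firefly luciferase, plated at 4,000 cells/well in 1% FBS medium and incubated overnight at 37° C. Luminescence normalised to DMSO-only cells; EC50 from four-parameter variable-slope nonlinear regression.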
Background: A reporter such as luciferase makes a cellular process visible.

The subject of experiment [3] is primary human fibroblasts derived from IPF patients (LL29 cells) treated with TGF-β1. The experiment in a line: Inhibition of the fibrotic process (αSMA staining) in TGF-β1-treated fibroblasts. The following applies: Fibroblast, 96 h, % αSMA-positive LL29 cells, TGF-β1 20 ng/mL, 4 days. An outline of the steps:
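LL29 fibroblasts from IPF patients, 1,500 cells/well in F12 with 1% FBS, stimulated with TGF-β1; TGF-β1 plus DMSO wells as controls. Incubation 4 days, then SYTOX green 1 μM final for 30 min at room temperature. Fibrotic response read as αSMA staining.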

A further experiment concerns IL-6 (THP-1 cells). The experiment in a line: IL-6 inhibition in LPS-stimulated THP-1 cells (HTRF). Conditions: Homo sapiens; for inhibition at 10 µM: THP-1, read-out: percent inhibition at 10 M; for EC50: IL6 by HTRF, THP-1 cells, 500 ng/mL LPS, 22 hours. The method, boiled down: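 THP-1 cells, pre-cultured 24 h in 1% FBS medium, treated with compound 2 h at 37 °C, then stimulated with 500 ng/mL LPS for 22 h. Secreted IL-6 measured by HTRF as the 665/620 nm ratio. Values normalized to DMSO; EC50 from four-parameter fit, duplicates.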
On the technique in general: Time-resolved FRET reads energy transfer from a long-lived donor to a nearby acceptor.

Molecules are shown by their SMILES.

One may read the inhibition as how much of the control response was suppressed. Regarding `Cc1ncc(-c2ccc3[nH]nc(-c4cc5c(-c6ccncc6)nccc5[nH]4)c3c2)n1C` [Compound 573, 5-(1,2-Dimethyl-1H-imidazol-5-yl)-3-(4-(pyridin-4-yl)-1H-pyrrolo[3,2-c]pyridin-2-yl)-1H-indazole], the Emax in experiment [1] stood at 36%. The EC50 in the experiment on SW480 colon cancer cells is 4020 nM; in experiment [2], 1240 nM; in experiment [3], 9980 nM; in the experiment with IL-6 (THP-1 cells) it was above 10000 nM. Also, in the experiment with IL-6 (THP-1 cells), the inhibition at 10 µM was found to be 38.8%.

Turning to `CN1CCN(c2nccc3[nH]c(-c4n[nH]c5ccc(-c6cncc(NC(=O)CC7CCNCC7)c6)cc45)cc23)CC1` [Compound 641], the Emax in experiment [1] is 43%. Besides, the EC50 in the experiment with SW480 colon cancer cells was above 10000 nM; in experiment [2], above 10000 nM; in experiment [3] it was 9900 nM; with IL-6 (THP-1 cells) it was above 10000 nM. Moreover, the inhibition at 10 µM worked out at 20.9% in the experiment with SW480 colon cancer cells (SW480, 96 h, read-out: percent inhibition at 10 μM); 0% in experiment [2] (SW480, read-out: percent inhibition at 10 μM); 28.7% with IL-6 (THP-1 cells).

`c1cc2[nH]c(-c3n[nH]c4ccc(-c5cncc(OCCN6CCCC6)c5)cc34)cc2cn1` [Compound 658, 5-(5-(2-(Pyrrolidin-1-yl)ethoxy)pyridin-3-yl)-3-(1H-pyrrolo[3,2-c]pyridin-2-yl)-1H-indazole]: the EC50 in experiment [1] (concentration required to induce 50% levels of chondrogenesis vs TGF-β3 positive control, read-out: Conc (nM) of 50% TGF-β3 activity) is 30 nM; with SW480 colon cancer cells, 552 nM; in experiment [2], 1860 nM; in experiment [3], 338 nM; in the experiment on IL-6 (THP-1 cells), 1160 nM. Further, the Emax in experiment [1] was 198%.

As to `COc1cncc(-c2ccc3[nH]nc(-c4cc5c(-c6ccsc6)nccc5[nH]4)c3c2)c1` [Compound 676, 5-(5-Methoxypyridin-3-yl)-3-(4-(thiophen-3-yl)-1H-pyrrolo[3,2-c]pyridin-2-yl)-1H-indazole], the Emax in experiment [1] came to 39%. The EC50 with SW480 colon cancer cells was found to be 500 nM; in experiment [2], 808 nM; in experiment [3] it was 2100 nM; in the experiment with IL-6 (THP-1 cells), 9120 nM.

Turning to `COc1cncc(-c2ccc3[nH]nc(-c4cc5c(-c6ccoc6)nccc5[nH]4)c3c2)c1` [Compound 692, 3-(4-(Furan-3-yl)-1H-pyrrolo[3,2-c]pyridin-2-yl)-5-(5-methoxypyridin-3-yl)-1H-indazole], the Emax in experiment [1] was found to be 20%. Moreover, the EC50 amounted to 227 nM with SW480 colon cancer cells, 309 nM in experiment [2], 741 nM in experiment [3] and 4530 nM in the experiment with IL-6 (THP-1 cells).
